Test results reported in ChEMBL document CHEMBL1201862, “PubChem BioAssay data set” (2004).
Calls of active or inactive are those of the source. Unless noted, no cut-off for these calls is given here.

Tests used:
Candida albicans [1] = assay: Candida growth inhibition combined with fluconazole – CaCi-2 strain, Alamar Blue, dry powder, set 3, dose response (AID 488907); assay type: functional, organism-based
Candida albicans [2] = assay: resistant Candida growth with fluconazole co-treatment – CaCi-8 strain, Alamar Blue, dry powder, set 3, dose response (AID 488905); assay type: functional, organism-based
[3] = A cell-based HTS for delayed death inhibitors of the malarial parasite plastid Measured in Microorganism System Using Plate Reader - 2126-02_Inhibitor_Dose_DryPowder_Activity.; assay type: functional, organism-based
[4] = FACS-based assay to assess parasite growth inhibition 48 hr Measured in Cell-Based System Using Flow Cytometry - 2126-03_Inhibitor_Dose_DryPowder_Activity. [Related pubchem assays (depositor defined):AID488774]; assay type: functional; conditions: Homo sapiens
Erythrocyte = assay: FACS-based assay to assess parasite growth inhibition 96 hr Measured in Cell-Based System Using Flow Cytometry - 2126-05_Inhibitor_Dose_DryPowder_Activity. [Related pubchem assays (depositor defined):AID488774]; assay type: functional; conditions: Homo sapiens
[5] = A cell-based HTS for delayed death inhibitors of the malarial parasite plastid Measured in Microorganism System Using Plate Reader - 2126-01_Inhibitor_Dose_DryPowder_Activity.; assay type: functional, organism-based
[6] = viability loss in Vero cells – cell-based, purified and synthesized samples, set 8, cytotoxicity control for M. tuberculosis inhibitor project (AID 602431); assay type: functional; conditions: Mycobacterium tuberculosis
[7] = HepG2 cell cytotoxicity, cytotoxicity control, set 6 (AID 602432); assay type: functional; conditions: Mycobacterium tuberculosis
[8] = THP-1 cell cytotoxicity, cytotoxicity control, set 6 (AID 602433); assay type: functional; conditions: Mycobacterium tuberculosis
[9] = target: ALK tyrosine kinase receptor (Homo sapiens, UniProt Q9UM73); assay type: functional;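 note: ALK tested as one member of a kinase panel screen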
[10] = target: Cyclin-dependent kinase 19 (Homo sapiens, UniProt Q9BWU1); assay: Navigating the Kinome. Panel member name: CDC2L6; assay type: functional
[11] = Vero cell cytotoxicity, dose response, cytotoxicity control for M. tuberculosis growth inhibitor project, Vero cells, purified and synthesized compounds, set 4 (AID 504854); assay type: functional; conditions: Mycobacterium tuberculosis
HEK293 [12] = assay: membrane integrity loss in HEK cells – cell-based, fluorescence, cytotoxicity control for IDE activator project, dose response (AID 588440); assay type: functional; conditions: Homo sapiens;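 note: cytotoxicity by LDH release measuring loss of membrane integrity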
Insulin-degrading enzyme [13] = target: T1, Insulin-degrading enzyme (Homo sapiens, UniProt P14735); assay: recombinant IDE activation, cell-free – biochemical, fluorescence polarization, counter-screen for IDE activator project, dose response (AID 588681)
T1 sequence (P14735 whole entry): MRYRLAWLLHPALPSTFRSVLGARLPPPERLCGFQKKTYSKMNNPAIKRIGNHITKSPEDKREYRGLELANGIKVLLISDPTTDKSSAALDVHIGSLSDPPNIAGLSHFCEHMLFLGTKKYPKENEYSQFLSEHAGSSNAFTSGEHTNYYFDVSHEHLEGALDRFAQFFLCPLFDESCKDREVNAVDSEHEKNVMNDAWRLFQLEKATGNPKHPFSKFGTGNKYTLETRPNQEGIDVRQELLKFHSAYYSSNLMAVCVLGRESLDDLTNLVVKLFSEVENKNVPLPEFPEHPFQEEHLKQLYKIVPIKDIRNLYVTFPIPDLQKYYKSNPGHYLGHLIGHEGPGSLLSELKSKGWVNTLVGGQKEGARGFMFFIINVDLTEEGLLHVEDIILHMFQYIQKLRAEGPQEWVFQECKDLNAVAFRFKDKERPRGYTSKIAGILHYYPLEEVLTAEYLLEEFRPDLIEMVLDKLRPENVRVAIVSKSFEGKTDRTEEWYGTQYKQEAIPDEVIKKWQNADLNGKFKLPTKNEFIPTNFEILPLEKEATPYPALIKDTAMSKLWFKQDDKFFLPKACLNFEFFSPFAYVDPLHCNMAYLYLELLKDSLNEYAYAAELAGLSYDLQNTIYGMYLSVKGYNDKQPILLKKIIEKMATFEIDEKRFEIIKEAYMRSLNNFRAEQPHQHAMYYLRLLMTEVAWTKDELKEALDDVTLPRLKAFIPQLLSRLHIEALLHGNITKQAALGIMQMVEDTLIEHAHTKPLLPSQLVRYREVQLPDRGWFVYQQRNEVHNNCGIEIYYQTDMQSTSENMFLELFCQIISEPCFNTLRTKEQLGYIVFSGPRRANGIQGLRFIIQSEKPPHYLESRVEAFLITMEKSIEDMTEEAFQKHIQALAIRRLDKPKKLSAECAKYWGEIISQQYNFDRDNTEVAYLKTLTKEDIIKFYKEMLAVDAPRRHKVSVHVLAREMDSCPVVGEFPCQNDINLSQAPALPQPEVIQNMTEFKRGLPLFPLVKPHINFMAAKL

Insulin-degrading enzyme [14] = target: T1, Insulin-degrading enzyme; assay: cellular IDE activation of Abeta substrate cleavage – fluorescence polarization, HEK cells, dose response (AID 588439); assay type: functional, cell-based
HEK293 [15] = assay: optical interference in Abeta FP readout, dose response, artefact control for IDE activator project, biochemical, fluorescence polarization (AID 588442); assay type: functional, cell-based; conditions: Homo sapiens

Chain of ALK tyrosine kinase receptor (Q9UM73 whole entry): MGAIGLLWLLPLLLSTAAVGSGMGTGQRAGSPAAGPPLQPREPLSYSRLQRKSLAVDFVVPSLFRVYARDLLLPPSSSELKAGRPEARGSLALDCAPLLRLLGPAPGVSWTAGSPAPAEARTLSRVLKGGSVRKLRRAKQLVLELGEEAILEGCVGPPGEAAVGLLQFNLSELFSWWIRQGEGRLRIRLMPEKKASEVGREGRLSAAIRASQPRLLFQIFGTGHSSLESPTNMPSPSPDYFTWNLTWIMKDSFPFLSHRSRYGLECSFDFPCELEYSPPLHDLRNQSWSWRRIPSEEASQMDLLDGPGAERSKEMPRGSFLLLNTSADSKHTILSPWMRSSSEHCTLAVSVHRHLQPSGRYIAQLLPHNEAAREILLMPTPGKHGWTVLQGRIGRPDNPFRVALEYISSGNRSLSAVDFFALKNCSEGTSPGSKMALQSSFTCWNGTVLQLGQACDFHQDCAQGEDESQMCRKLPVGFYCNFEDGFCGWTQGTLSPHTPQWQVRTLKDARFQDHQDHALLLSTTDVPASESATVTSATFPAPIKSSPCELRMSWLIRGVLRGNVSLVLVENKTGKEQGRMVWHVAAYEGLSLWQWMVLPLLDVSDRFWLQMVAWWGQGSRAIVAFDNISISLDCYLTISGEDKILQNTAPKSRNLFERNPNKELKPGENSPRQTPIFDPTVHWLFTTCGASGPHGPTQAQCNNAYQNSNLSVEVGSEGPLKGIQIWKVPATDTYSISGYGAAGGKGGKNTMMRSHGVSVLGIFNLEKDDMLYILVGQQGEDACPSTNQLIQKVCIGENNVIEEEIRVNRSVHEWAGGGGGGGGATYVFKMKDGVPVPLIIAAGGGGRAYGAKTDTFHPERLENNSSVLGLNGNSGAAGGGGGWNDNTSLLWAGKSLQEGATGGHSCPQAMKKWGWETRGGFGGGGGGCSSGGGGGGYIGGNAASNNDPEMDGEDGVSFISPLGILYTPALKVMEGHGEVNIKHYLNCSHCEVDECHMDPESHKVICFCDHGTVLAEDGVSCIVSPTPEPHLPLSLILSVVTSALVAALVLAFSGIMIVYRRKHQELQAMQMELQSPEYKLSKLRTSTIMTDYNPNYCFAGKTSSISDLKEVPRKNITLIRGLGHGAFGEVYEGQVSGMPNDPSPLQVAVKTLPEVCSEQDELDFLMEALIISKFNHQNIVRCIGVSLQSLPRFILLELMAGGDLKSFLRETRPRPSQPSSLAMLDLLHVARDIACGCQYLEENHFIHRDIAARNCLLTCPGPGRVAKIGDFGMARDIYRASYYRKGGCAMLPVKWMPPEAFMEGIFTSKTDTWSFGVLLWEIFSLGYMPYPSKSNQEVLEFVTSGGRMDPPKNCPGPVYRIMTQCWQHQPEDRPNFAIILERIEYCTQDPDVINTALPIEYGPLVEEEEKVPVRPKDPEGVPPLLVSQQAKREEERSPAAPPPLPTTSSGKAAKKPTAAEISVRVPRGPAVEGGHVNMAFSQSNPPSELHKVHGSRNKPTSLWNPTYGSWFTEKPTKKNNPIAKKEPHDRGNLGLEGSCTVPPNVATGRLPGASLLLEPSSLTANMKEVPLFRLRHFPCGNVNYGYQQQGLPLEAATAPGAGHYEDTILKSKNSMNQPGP
Chain of Cyclin-dependent kinase 19 (Q9BWU1 whole entry): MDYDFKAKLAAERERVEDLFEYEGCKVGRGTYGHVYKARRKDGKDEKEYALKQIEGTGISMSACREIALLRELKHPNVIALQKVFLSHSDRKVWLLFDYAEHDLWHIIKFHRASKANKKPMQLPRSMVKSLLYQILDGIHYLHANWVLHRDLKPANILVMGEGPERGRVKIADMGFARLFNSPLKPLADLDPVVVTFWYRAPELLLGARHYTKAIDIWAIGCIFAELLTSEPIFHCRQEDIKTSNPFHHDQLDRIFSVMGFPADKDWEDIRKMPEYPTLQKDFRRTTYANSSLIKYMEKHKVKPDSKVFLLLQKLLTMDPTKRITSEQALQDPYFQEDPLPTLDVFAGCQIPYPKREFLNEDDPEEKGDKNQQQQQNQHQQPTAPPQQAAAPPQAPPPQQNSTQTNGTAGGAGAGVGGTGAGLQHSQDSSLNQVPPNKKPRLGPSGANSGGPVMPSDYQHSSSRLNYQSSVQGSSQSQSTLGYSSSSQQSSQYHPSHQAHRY

SMILES: O=C(c1ccc(Cl)cc1)N1CCN(c2nc3ccccc3s2)CC1
- AC50 (Candida albicans [1]): 1.41 µM (active)
- AC50 (Candida albicans [2]): 0.565 µM (active)

SMILES: COc1ccc(COC[C@H](C)N2C[C@@H](C)[C@H](CN(C)S(=O)(=O)c3ccc(F)cc3)OCCCC[C@H](C)Oc3ccc(NC(=O)Nc4ccccc4)cc3C2=O)cc1
- AC50 [3]: 0.00018 µM (active)
- AC50 [4]: 0.0008 µM (active)
- AC50 (Erythrocyte): 0.001 µM (active)
- AC50 [5]: 0.000294 µM (active)

SMILES: COc1ccc(N2CCN(C(=O)c3ccc(CNc4c(N5CCCC(C)C5)c(=O)c4=O)cc3)CC2)cc1 (stereo unspecified)
- CC50 [6]: > 100 µM (inconclusive)
- CC50 [7]: > 50 µM (inconclusive)
- CC50 [8]: > 98.4 µM (active)

SMILES: O=C(O)c1c(Cl)ccc2cc(-n3cccc3)cnc12
- Ki [9]: 3.98 µM (active)
- Ki [10]: > 100 µM (inactive)

SMILES: CC(C)CCNC(=O)CSc1nc2c(c(=O)[nH]1)CCC2
- CC50 [11]: > 100 µM (active)

SMILES: Cc1ccc2c(c1)c1c(n2CC(O)CNC2CCCC2)CCCC1 (stereo unspecified)
- IC50 (HEK293 [12]): 61.9 µM (inactive)
- EC50 (Insulin-degrading enzyme [13]): > 54.7 µM (inactive)
- EC50 (Insulin-degrading enzyme [14]): > 54.7 µM (inactive)
- EC50 (HEK293 [15]): > 55.9 µM (inactive)
